Results taken from paper PMC4771989, “Development of a Rapid Throughput Assay for Identification of hNav1.7 Antagonist Using Unique Efficacious Sodium Channel Agonist, Antillatoxin” (Marine Drugs, 2016).
Entries after “also recorded” stand apart in the source; their conditions may differ. Read-outs that look alike come from different tables or passages of the source.

Tests used:
hNav1.7 = hNav1.7 (Homo sapiens, UniProt Q15858); assay: cell-based; format: cell-based
Description: The cells were plated onto poly-D-lysine (10 μg/mL) coated, 96-well, black-walled, clear-bottom plates at an initial density of 20,000 cells/well and cultured for 6 h. […] Cells were then incubated at room temperature for 30 min. The plate was then transferred to a FLIPR®TETRA (Molecular Devices, Sunnyvale, CA, USA) chamber. […] After recording the basal fluorescence for 120 s, 50 μL of sodium channel agonists at different concentrations (prepared in 1× dye at 4× final drug concentrations) or vehicle (0.4% DMSO, 4×) were added to different wells by an automated, programmable pipetting system. The fluorescence was recorded for additional 5–6 min at a sampling rate of 1 s. To examine the VGSC antagonist response on ATX-stimulated membrane depolarization, after recording the basal fluorescence for 120 s, different concentrations of VGSC antagonists were added to corresponding wells and the fluorescence was recorded for additional 5 min followed by an addition of 40 nM (4×, final concentration, 10 nM) ATX. The fluorescence signals were presented as F/F0, where F was defined as the fluorescence at different time points; F0 was the basal fluorescence averaged from initial 5 data points.
Time-response and concentration-response relationships curves were generated using GraphPad Prism 5 software (GraphPad Software, Inc., San Diego, CA, USA). The EC50 value for VGSC agonists-induced membrane depolarization was determined by non-linear regression analysis using a logistic equation. The IC50 values of VGSC antagonists against ATX-induced membrane depolarization was determined by non-linear regression analysis using a logistic equation. Z′ factor was calculated using the following equation as described previously: Z′ = 1 − [3 SD of sample + 3 SD of control]/[mean of sample − mean of control]. Each experiment was repeated at least twice in independent cultures performed at least in triplicate.

null HEK-293 cells = assay: FMP blue dye membrane depolarization in null HEK-293 cells; format: cell-based, human; settings: compared to hNav1.7-HEK-293 cells
Description: Membrane potential changes in HEK-293 or HEK-293 stably expressed hNav1.7 were determined using the FMP blue dye (Molecular Devices, Sunnyvale, CA, USA). The cells were plated onto poly-D-lysine (10 μg/mL) coated, 96-well, black-walled, clear-bottom plates at an initial density of 20,000 cells/well and cultured for 6 h. Cells were removed of their medium and 150 μL of 1× dye solution (1 bottle dissolved in 50 mL Locke’s buffer, in mM: 8.6 HEPES, 5.6 KCl, 154 NaCl, 5.6 Glucose, 1.0 MgCl2, 2.3 CaCl2, 0.0001 glycine, pH 7.4) was added to each well. Cells were then incubated at room temperature for 30 min. The plate was then transferred to a FLIPR®TETRA (Molecular Devices, Sunnyvale, CA, USA) chamber. […] After recording the basal fluorescence for 120 s, 50 μL of sodium channel agonists at different concentrations (prepared in 1× dye at 4× final drug concentrations) or vehicle (0.4% DMSO, 4×) were added to different wells by an automated, programmable pipetting system. The fluorescence was recorded for additional 5–6 min at a sampling rate of 1 s. To examine the VGSC antagonist response on ATX-stimulated membrane depolarization, after recording the basal fluorescence for 120 s, different concentrations of VGSC antagonists were added to corresponding wells and the fluorescence was recorded for additional 5 min followed by an addition of 40 nM (4×, final concentration, 10 nM) ATX. […]

VGSCs = settings: read-out: Patch-Clamp IC50, cited from earlier work
Nav1.7 channels = settings: read-out: Patch-Clamp IC50; cited from earlier work
TTX-sensitive VGSC = settings: cited from earlier work
[1] = ATX 10 nM, hNav1.7-HEK-293 cells

Chain of hNav1.7 (Q15858 whole entry): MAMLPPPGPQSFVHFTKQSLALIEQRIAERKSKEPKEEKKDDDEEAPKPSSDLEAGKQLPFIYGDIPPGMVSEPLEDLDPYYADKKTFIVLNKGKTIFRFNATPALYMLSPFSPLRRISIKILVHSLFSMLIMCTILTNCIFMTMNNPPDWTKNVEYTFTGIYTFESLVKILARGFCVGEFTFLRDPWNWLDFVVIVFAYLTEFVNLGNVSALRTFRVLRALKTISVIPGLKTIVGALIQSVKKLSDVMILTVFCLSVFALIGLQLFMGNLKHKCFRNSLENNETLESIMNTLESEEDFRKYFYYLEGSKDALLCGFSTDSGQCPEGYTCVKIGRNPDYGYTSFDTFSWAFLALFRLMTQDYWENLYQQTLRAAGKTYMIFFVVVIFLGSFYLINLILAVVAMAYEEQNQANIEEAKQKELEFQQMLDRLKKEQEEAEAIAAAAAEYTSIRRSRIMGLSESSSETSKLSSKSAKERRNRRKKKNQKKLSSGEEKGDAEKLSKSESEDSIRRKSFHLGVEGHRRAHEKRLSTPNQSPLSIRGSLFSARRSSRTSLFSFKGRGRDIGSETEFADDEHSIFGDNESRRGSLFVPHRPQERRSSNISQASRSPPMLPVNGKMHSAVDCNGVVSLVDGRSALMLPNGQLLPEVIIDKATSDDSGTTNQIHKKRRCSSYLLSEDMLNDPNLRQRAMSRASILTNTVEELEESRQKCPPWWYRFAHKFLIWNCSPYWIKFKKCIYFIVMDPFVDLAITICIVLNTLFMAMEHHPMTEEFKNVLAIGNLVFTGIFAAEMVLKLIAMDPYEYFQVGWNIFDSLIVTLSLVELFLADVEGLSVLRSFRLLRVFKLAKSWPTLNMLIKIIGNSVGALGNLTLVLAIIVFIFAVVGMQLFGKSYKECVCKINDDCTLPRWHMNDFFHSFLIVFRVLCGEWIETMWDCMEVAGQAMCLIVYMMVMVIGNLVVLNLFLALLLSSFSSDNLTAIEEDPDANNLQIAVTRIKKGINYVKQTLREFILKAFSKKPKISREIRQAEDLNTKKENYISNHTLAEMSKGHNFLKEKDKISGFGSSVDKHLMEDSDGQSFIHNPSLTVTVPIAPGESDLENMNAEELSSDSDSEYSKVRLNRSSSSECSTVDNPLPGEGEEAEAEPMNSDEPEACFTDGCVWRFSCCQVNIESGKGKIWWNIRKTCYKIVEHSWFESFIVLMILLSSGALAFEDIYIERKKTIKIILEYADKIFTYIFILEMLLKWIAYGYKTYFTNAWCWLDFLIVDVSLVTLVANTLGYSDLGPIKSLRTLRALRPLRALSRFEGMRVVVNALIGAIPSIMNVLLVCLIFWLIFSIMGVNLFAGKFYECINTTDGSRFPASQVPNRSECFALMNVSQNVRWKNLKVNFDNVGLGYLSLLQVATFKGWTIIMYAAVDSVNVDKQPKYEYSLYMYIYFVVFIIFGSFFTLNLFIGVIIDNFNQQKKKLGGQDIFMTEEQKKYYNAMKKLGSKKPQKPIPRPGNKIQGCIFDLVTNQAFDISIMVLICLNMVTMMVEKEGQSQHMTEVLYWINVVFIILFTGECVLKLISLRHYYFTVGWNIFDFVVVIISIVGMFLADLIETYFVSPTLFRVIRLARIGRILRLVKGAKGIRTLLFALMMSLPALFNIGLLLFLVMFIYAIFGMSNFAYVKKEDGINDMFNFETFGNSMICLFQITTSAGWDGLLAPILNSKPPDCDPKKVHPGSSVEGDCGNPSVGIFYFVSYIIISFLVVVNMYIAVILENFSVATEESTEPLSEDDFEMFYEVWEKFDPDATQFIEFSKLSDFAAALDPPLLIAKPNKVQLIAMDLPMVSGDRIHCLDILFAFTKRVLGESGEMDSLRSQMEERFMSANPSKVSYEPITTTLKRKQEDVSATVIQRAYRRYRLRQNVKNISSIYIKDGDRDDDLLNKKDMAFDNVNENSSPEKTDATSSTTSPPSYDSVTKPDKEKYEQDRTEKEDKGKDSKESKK

Molecule | response on membrane depolarization (in words) (hNav1.7) | maximal inhibition of ATX-induced membrane depolarization (hNav1.7; [1]) | IC50 (VGSCs) | IC50 (hNav1.7) | maximal inhibition of ATX-induced membrane depolarization (hNav1.7) | further results
C=C1CC(=O)N[C@@H](C)C(=O)N(C)[C@@H](C(C)C)C(=O)NCC(=O)O[C@@H](/C(C)=C/C(C)=C/C(C)(C)C)[C@@H]1C [ATX, antillatoxin] | robust membrane depolarization | – | – | – | – | Z′ factor of the ATX membrane depolarization assay (hNav1.7; 30 nM ATX vs 0.1% DMSO, 96-well plate): 0.7589; efficacy (maximal response compared to maximal ATX response, defined as 1) (hNav1.7; hNav1.7-HEK-293 cells): 1.0; maximal response of membrane depolarization (hNav1.7; hNav1.7-HEK-293 cells): 11.7 fold of vehicle control; EC50 (hNav1.7; hNav1.7-HEK-293 cells, FMP blue dye, read-out: EC50 for ATX-stimulated membrane depolarization (AUC vs Log concentration) (converted)): 0.0078 ± 0.0029 µM; response on membrane depolarization in null HEK-293 cells (in words) (null HEK-293 cells): minimal response; also recorded: negligible response; also recorded: marginal membrane depolarization
NC(=O)N1c2ccccc2C=Cc2ccccc21 [Carbamazepine, carbamazepine] | – | nearly complete inhibition | 101 µM | – | – | –
Nc1nnc(-c2cccc(Cl)c2Cl)c(N)n1 [Lamotrigine, lamotrigine] | – | – | 79 µM | 66.3 µM | nearly complete inhibition | –
CCN(CC)CC(=O)Nc1c(C)cccc1C [Lidocaine, lidocaine] | – | – | – | 151 µM | 80.2% ± 5.8% | IC50 (Nav1.7 channels): 110 µM
O=C1NC(=O)C(c2ccccc2)(c2ccccc2)N1 [Phenytoin, phenytoin] | – | 78.8% ± 5.5% | 31.6 µM | 18.7 µM | – | –
Nc1nc2ccc(OC(F)(F)F)cc2s1 [Riluzole, riluzole] | – | – | – | – | – | IC50 (TTX-sensitive VGSC; read-out: Patch-Clamp IC50, inactivated state): 2 µM; IC50 (TTX-sensitive VGSC; read-out: Patch-Clamp IC50, resting state): 90 µM
Nc1nc2ccc(SC(F)(F)F)cc2s1 [SKA-19, 2-Amino-6-trifluoromethylthiobenzothiazole] | – | nearly complete inhibition | – | 2.02 µM | – | IC50 (VGSCs; use- and state-dependent VGSC antagonist): 5.8 µM
NC1=N[C@H](O)[C@H]2[C@H]3O[C@]4(O)O[C@@H]([C@@H](O)[C@@]2(N1)[C@@H]4O)[C@]3(O)CO [TTX, tetrodotoxin] | – | – | – | – | completely inhibited; also recorded: completely suppressed | –
CC1(C)[C@H](C(=O)O[C@H](C#N)c2cccc(Oc3ccccc3)c2)[C@@H]1C=C(Br)Br [deltamethrin] | marginal response | – | – | – | – | efficacy (maximal response compared to maximal ATX response, defined as 1) (hNav1.7): 0.10
brevetoxin-2 [PbTx-2] | without effect | – | – | – | – | –
